Values after ≈ are worked out from the molar mass of the structure shown. Read-outs that look alike come from different tables or passages of the source.

One data set deals with E. coli (TOP10). In words: Broth microdilution antimicrobial susceptibility assay. The class given is cell-based, Escherichia coli. Particulars: 24 h, MHB. An excerpt:
(§1) To test antimicrobial activity, all peptides were initially screened, in a broth microdilution assay, against Gram-negative Escherichia coli (TOP10) and Gram-positive Staphylococcus carnosus (CCM 4838T) Biosafety Level 1 (BSL-1) bacteria (Table 2). […] Four other mutants (LP3, LP26, LP36, and LP39) had higher activity than LP1 against E. coli, and two mutants (LP23 and LP32) had higher activity than LP1 against S. carnosus. Six mutants (LP29, LP30, LP31, LP33, LP40, and LP43) were not active against one or both bacteria, even at the highest concentration tested (50 μM).
(§2) Antimicrobial activity against E. coli TOP10 and S. carnosus CCM 4838T was tested using the broth microdilution assay. Bacteria were cultured in MHA Petri dish for 24 h, subcultured in an MHB test tube for 6 h at 37 °C, and diluted to 10^6 CFU/mL (OD600). […] Dilution series was prepared for concentrations 50 to 0.1 μM in a flat-bottom 96-well plate, inoculated with bacteria, and incubated for 24 h at 37 °C. Growth control wells were free from test compounds, and sterility control wells were free from bacteria. Bacterial MIC was determined as the lowest concentration of test compounds that inhibited visible growth of bacteria (i.e., no visible turbidity).

Data set [1] concerns ESKAPEE pathogens. The data set is described as follows: MIC against six reference strains of ESKAPEE pathogens (Figure 3b). The class given is cell-based.
Text: (§3) The effect of net charge was further investigated against six reference strains of ESKAPEE pathogens (Figure 3b).
The test system of the next data set is S. carnosus (CCM 4838T). In words: microbe, parasite or virus in culture. Format: cell-based, Staphylococcus carnosus. Particulars: read-out: Antimicrobial activity (MIC) S. carnosus (CCM 4838T).
Text: as §1, §2

The test system of data set [2] is ESKAPEE pathogens. In words: MIC against five commercially available ESKAPEE strains (Figure 3a). The class given is cell-based. The procedure: First, LP1 and five mutants (LP3, LP8, LP18, LP22, and LP28) were tested against five commercially available ESKAPEE strains (Figure 3a). Promising activity was obtained against Gram-negative Acinetobacter baumannii (GSAB 164), which is resistant to colistin and meropenem, followed by a quality control strain of E. coli (ATCC 25922). Micromolar activity, i.e., MIC of 1 μM, was obtained with both LP1 and LP18.
(Protocol a) Antimicrobial activity test against ESKAPEE strains S. aureus NRS 1, K. pneumoniae ATCC 700603, A. baumannii GSAB 164, P. aeruginosa NCTC 13437, and E. coli ATCC 25922 was purchased from Evotec (UK).

Data set [3] relates to ESKAPEE pathogens. The data set is described as follows: MIC against nine ampicillin-resistant ESKAPEE strains (Figure 3d). Format: cell-based. The following applies: 72 h.
The conditions of data set [4]: single intraperitoneal dose at 10 times the MIC.
Method: Neutropenic mice were infected intramuscularly (in the right thigh) with 10^6 cells per mL of Gram-negative A. baumannii (ATCC 19606).
(a) Schematic of the deep thigh infection model in which bacteria are injected intramuscularly at day 4 and peptides are administered intraperitoneally also at day 4 to assess their anti-infective activity. Mice were euthanized 4 days postinfection (day 8). Each group consisted of six mice (n = 6), and the bacterial loads used to infect the mice derived from three different inocula. […] Polymyxin B (0.006 mg/kg) and levofloxacin (0.014 mg/kg) were used as the reference antibiotics. Statistical significance was done using one-way ANOVA followed by Dunnett’s test. Violin plots represent the median, upper quartile, and lower quartile. (c) Mouse weight was monitored to exclude possible toxic effects of the peptides.
Six-week-old female CD-1 mice (obtained from Charles River; stock number 18679700-022) underwent neutropenia induction via two intraperitoneal doses of cyclophosphamide (150 mg kg^–^1) administered with a 72 h interval. One day later, the mice received an intramuscular injection containing A. baumannii ATCC 19606 (10^6 CFU mL^–1) in the right thigh. Bacteria were cultured in LB broth, washed twice with PBS (pH 7.4), and resuspended to the desired concentration. […] Polymyxin B (0.006 mg/kg) and levofloxacin (0.014 mg/kg) were used as the reference antibiotics. Prior to each injection, mice were anesthetized with isoflurane and their respiratory rate and pedal reflexes were monitored. Subsequently, we observed the infection establishment and euthanized the mice. The infected area was excised 4 days postinfection (i.e., 8 days after the beginning of the experiment), homogenized using a bead beater for 20 min (25 Hz), and 10-fold serially diluted for CFU quantification on MacConkey agar plates. Each experimental group comprised three mice. All experiments were conducted blindly, and no animals were excluded from the analysis. Statistical significance was assessed using one-way ANOVA followed by Dunnett’s test on log10-transformed data to mitigate outlier effects; p values are reported for each group, with all groups compared to the untreated control group.
The test system of a further data set is A. baumannii (Z13). Particulars: Z13, 18 h.
Data set [5] deals with cytoplasmic membranes of ESKAPEE pathogens. The data set is described as follows: Cytoplasmic membrane depolarization assay, DiSC3-(5). The class given is cell-based. The following applies: both Gram-negative and Gram-positive bacteria; peptides at their MICs. The procedure: First, we investigated the ability of the peptides to depolarize the cytoplasmic membranes of ESKAPEE pathogens. […] Bacteria were incubated with 3,3′-dipropylthiadicarbocyanine iodide [DiSC3-(5)] dye, and the dye fluorescence was measured after peptide treatment. DiSC3-(5) is sensitive to transmembrane potential changes. It accumulates in the cytoplasmic membrane with quenched fluorescence, and when the membrane potential becomes unbalanced, the dye molecules translocate to the outside environment, resulting in increased fluorescence.[56] The three potent AMPs (LP1, LP18, and LP28) and the H-variant (LP40) depolarized the cytoplasmic membrane of both Gram-negative and Gram-positive bacteria at their MICs.
The cytoplasmic membrane depolarization activity of the peptides was determined by measuring the fluorescence of membrane-potential-sensitive dye DiSC3-(5). A. baumannii ATCC 19606, E. coli ATCC 11775, K. pneumoniae ATCC 13883, P. aeruginosa PAO1, S. aureus ATCC 12600, and E. faecium ATCC 700221 were grown to mid log phase (OD600 = 0.5) at 37 °C and then centrifuged (10,000 rpm at 4 °C for 10 min). Cells were washed twice with a buffer containing 20 mM glucose and 5 mM HEPES (pH 7.2) and diluted 1:10 (OD600 = 0.05) in a buffer with 0.1 M KCl, […], and 5 mM HEPES (pH 7.2). Fluorescence was recorded at the excitation and emission wavelengths of 622 and 670 nm, respectively. Bacterial solution (100 μL) was incubated for 15 min with 20 nM of DiSC3-(5) until fluorescence reached a plateau. Changes in transmembrane potential were monitored by observing the difference in fluorescence emission intensity after adding peptides (100 μL at their MICs) for 45 min. Assay was performed in triplicate.

Data set [6] deals with A. baumannii (ATCC 19606). Particulars: clinically relevant strain.
Text: as §3
Data set [7] has as its system A. baumannii (ATCC 19606). The data set is described as follows: Neutropenic murine deep thigh infection model. Format: in vivo, mouse. The following applies: single intraperitoneal dose at 10 times the MIC; four days after treatment. From the text:
Mice were euthanized 4 days postinfection (day 8).
Each experimental group comprised three mice.

Data set [8] is described as follows: Calcein dye leakage assay from LUVs. The class given is biochemical. Particulars: P:L 1:100; pH 7.4. An excerpt:
To verify the pore-forming mechanism of action of the designed AMPs, we performed a calcein leakage assay. […] These lipid vesicles were used as simple mimics of bacterial membranes.[58] At the lowest tested peptide-to-lipid (P:L) ratio of 1:100 (mol/mol), three mutants (LP18, LP26, and LP40) caused >90% leakage, which was higher than the leakage caused by LP1 (87%). […] At the same concentration, LP23 caused leakage equivalent to that caused by LP1. Other mutants had lower leakage activity. At a higher P:L ratio of 1:50, all the abovementioned mutants caused 100% leakage, equivalent to that caused by LP1.
Pore-forming activity was tested using a dye leakage assay measuring the leakage of self-quenching fluorescent dye calcein from POPC:POPG (1:1 mol/mol) LUVs. DiD was mixed with lipids (1:500 mol/mol), and lipid film was created by evaporating chloroform, followed by 4 h of desiccation. Dried lipid film was dissolved in calcein buffer (35 mM calcein, 25 mM NaH2PO4·H2O and Na2HPO4·7H2O (3:7 mol/mol), 20 mM NaCl, and 1 mM EDTA). After 10 freeze–thaw cycles, the sample was extruded 50 times through a 100 nm pore size polycarbonate membrane filter. Free calcein in solution was removed using a HiTrap Desalting column. The concentrations of LUVs and peptides were adjusted to 0.02 and 0.1 mM, respectively, in PBS (25 mM NaH2PO4·H2O and Na2HPO4·7H2O (3:7 mol/mol), 100 mM NaCl, and 1 mM EDTA). The investigated P/L ratio was from 1:100 to 1:10 (mol/mol). Fluorescence intensity was measured using a HORIBA Scientific Jobin Yvon FluoroLog-3 Modular Spectrofluorometer (USA). Excitation and emission wavelengths were set to 495 and 520 nm, respectively. Triton X-100 10% caused 100% leakage used for normalization.

The next data set relates to E. faecium (ATCC 700221). Particulars: resistant to vancomycin.
Data set [9] relates to murine macrophages RAW 264.7. The following applies: 24 h. The procedure:
Cytotoxicity against human immortalized keratinocytes HaCaT, human alveolar basal epithelial A549 (derived from adenocarcinoma), and murine macrophages RAW 264.7 was tested using MTT [3-(4,5-dimethylthiazol-2-yl)-2,5-diphenyltetrazolium bromide] assay. Cells were cultured in Dulbecco’s modified Eagle’s medium (DMEM) containing 4 mM glutamine for HaCaT, or 2 mM glutamine for A549 and RAW 264.7 cells, supplemented with 10% heat-inactivated fetal bovine serum (FBS) and antibiotics (0.1 mg/mL penicillin and streptomycin). Nonessential amino acids (NEAA) and sodium pyruvate (1 mM) were added for macrophages. Cell lines were grown in 25 and 75 cm^2 flasks at 37 °C in a humidified atmosphere with 5% CO2. Cells were suspended in DMEM, containing glutamine, NEAA, and sodium pyruvate (as described above), supplemented with 2% FBS, plated in 96-well plates at 4 × 10^4 cells/well, and incubated at 37 °C in a 5% CO2 atmosphere. After overnight incubation, the medium was replaced with fresh DMEM supplemented with peptides at different concentrations: 2, 4, 8, 16, 32, 64, and 128 μM. Negative controls were cells without peptides. After 24 h of peptide treatment at 37 °C in a 5% CO2 atmosphere, medium was replaced with Hank’s buffer (136 mM NaCl, 0.34 mM Na2HPO4, 0.44 mM KH2PO4, 5.4 mM KCl, 4.1 mM NaHCO3, supplemented with 5.5 mM D-glucose) containing 0.5 mg/mL MTT. Mitochondrial dehydrogenases converted soluble yellow dye MTT to insoluble purple formazan. After 4 h of incubation, acidified isopropanol was added to dissolve formazan crystals and measured for OD570 using Tecan microplate reader Infinite M200 (Salzburg, Austria).

The subject of a further data set is E. coli AIC221. The following applies: Figure 3c.

Text for E. coli AIC221: as §3
Text for E. faecium (ATCC 700221): as §3

For `CC1(C)S[C@@H]2[C@H](NC(=O)[C@H](N)c3ccccc3)C(=O)N2[C@H]1C(=O)O` [Ampicillin], the MIC is 12.5 µM (≈ 4.37 µg/mL) against E. coli (TOP10) (Escherichia coli); more than 92 µM against ESKAPEE pathogens [1]; 0.1 µM (≈ 0.0349 µg/mL) in the data set with S. carnosus (CCM 4838T) (Staphylococcus carnosus, 24 h, MHB); more than 180 µM in the data set with ESKAPEE pathogens [2]; more than 360 µM in the data set on ESKAPEE pathogens [3].

Turning to “H-KKKKKLKKILKKLFQFINQLDNQLQDIKKKKK-OH [LP28]”, the MIC against E. coli (TOP10) came out at 0.4 µM; with S. carnosus (CCM 4838T) (CCM 4838, 24 h), 0.4 µM; against A. baumannii (Z13) it was 1 µM; in data set [6], 0.8 µM; in the data set on E. faecium (ATCC 700221), 0.8 µM; with E. coli AIC221 it was 0.8 µM. Further, the “Change in mouse weight” value in [4] was “no significant change in mouse weight”. Further, the “Depolarization of the cytoplasmic membrane” value in data set [5] is reported as “depolarized”. In addition, the “Reduction of bacterial load” value in data set [7] is given as “did not significantly reduce the bacterial load”. In [8], the “Calcein leakage (%) from LUVs at P:L 1:100 (mol/mol)” value was 74.0 ± 6.7%. The IC50 in data set [9] was 31 µM.
